Data on ten compounds can be found in article PMC10424176, “Chamelogk: A Chromatographic Chameleonicity Quantifier to Design Orally Bioavailable Beyond-Rule-of-5 Drugs” (Journal of Medicinal Chemistry, 2023).

Data set [1] is described as follows: Chamelogk, chromatographic chameleonicity descriptor (PLRP-S RP-HPLC). In kind it is physicochemical. To be noted: Exp. minus Ext. log k' PLRP-S at 100% MeCN; linear fit at 50, 60, 70% MeCN; 20 mM ammonium acetate pH 7.0; 30 °C.
The nature of the next data set: physchem. Type of data set: physicochemical. The procedure:
(§1) The mobile phases for every descriptor consisted of isocratic solutions of 20 mM ammonium acetate at pH 7.0 and acetonitrile at various percentages (see the specific descriptor). Small amounts of the 55 compounds were dissolved in buffer/acetonitrile mixtures (v/v) at concentrations ranging from 50 to 100 μg/mL. Subsequently, 10 μL of each solution (injection volume) was injected at an isocratic flow rate of 1 mL/min and analyzed at 30 °C (oven temperature). Chromatographic measurements were then analyzed in duplicate based on the specific chromatographic conditions of each descriptor.
BRlogD[39] required the injection of 55 samples into the X-Bridge column at 60% MeCN (predominant mobile phase constituent). The retention times and dead time (t0, baseline interference) were recorded, and the capacity factor log k’60 was calculated adapting eq 2. Lastly, BRlogD value was calculated from eq 3 [drawing 3] 3

A short description of data set [2]: log kW^IAM and Δ log kW^IAM (IAM chromatography). In kind it is physicochemical. To be noted: for log kW^IAM: IAM column, extrapolated to 100% buffer from 10 to 50% MeCN, pH 7.0; for Δ log kW^IAM: polarity, from log kW^IAM and BRlogD (eq 4, 5). The procedure:
as §1, with “descriptor. […] The retention times of the samples were recorded, and the capacity factor was calculated for each mobile phase condition adapting eq 2, where t0 is the retention time of citric acid.” for “descriptor.”

For data set [3] the following is noted: difference between maximum and minimum 3D-PSA among crystallized conformers; cited from earlier work.
For data set [4] the following is noted: cited from earlier work.
For data set [5] the following is noted: solubility range class; cited from earlier work.
The conditions of data set [6]: oral activity; cited from earlier work.
Where [7] appears, read: XBridge Shield RP18 HPLC column, XBridge column, 60% MeCN, pH 7.0, read-out: BRlogD.
The mark [8] stands for this setting: XBridge column, 60% MeCN, pH 7.0, read-out: BRlogD.

Entries after “also recorded” stand apart in the source; their conditions may differ. Read-outs that look alike come from different tables or passages of the source.

Consider `CC(C)(C)NC(=O)[C@@H]1C[C@@H]2CCCC[C@@H]2CN1C[C@@H](O)[C@H](Cc1ccccc1)NC(=O)[C@H](CC(N)=O)NC(=O)c1ccc2ccccc2n1` [saquinavir], for which the Chamelogk in data set [1] was determined as 1.23. In the data set “physchem” (pH 7), the BRlogD is listed as 2.85. Further, in data set [2], the “log kW^IAM” value is on record as 3.44 and the “Δ log kW^IAM” value was found to be 1.85. In addition, the “X-Ray Δ 3D-PSA” value in data set [3] is given as 21.

In data set [1], `CO[C@H]1C[C@@H]2CC[C@@H](C)[C@@](O)(O2)C(=O)C(=O)N2CCCC[C@H]2C(=O)O[C@H]([C@H](C)C[C@@H]2CC[C@@H](OCCO)[C@H](OC)C2)CC(=O)[C@H](C)/C=C(\C)[C@@H](O)[C@@H](OC)C(=O)[C@H](C)C[C@H](C)/C=C/C=C/C=C/1C` [everolimus] registered a Chamelogk of 0.45. Moreover, the chromatographic logD in the data set “physchem” (pH 7) was determined as 4.86. In addition, in data set [2], the “log kW^IAM” value is listed as 4.15 and the “Δ log kW^IAM” value is given as 0.71. The ChameLogD in data set [4] is given as 1.7.

In the case of `Cc1ncsc1-c1ccc(CNC(=O)[C@@H]2C[C@H](O)CN2C(=O)[C@@H](NC(=O)COCCOCCOCCNC(=O)C[C@@H]2N=C(c3ccc(Cl)cc3)c3c(sc(C)c3C)-n3c(C)nnc32)C(C)(C)C)cc1` [cisMZ1], the Chamelogk in data set [1] worked out at 1.27. The compound further returned a chromatographic logD in the data set “physchem” (pH 7) of 1.87. In addition, in data set [2], the “log kW^IAM” value is 2.90 and the “Δ log kW^IAM” value is on record as 2.20. Also, the LogS entry in data set [5] is reported as “Int. range”. The “Abs. Route” value in data set [6] is recorded as “Non-oral”.

`Cc1ncsc1-c1ccc(CNC(=O)[C@@H]2C[C@@H](O)CN2C(=O)[C@@H](NC(=O)COCCOCCOCCNC(=O)C[C@@H]2N=C(c3ccc(Cl)cc3)c3c(sc(C)c3C)-n3c(C)nnc32)C(C)(C)C)cc1` [MZ1] came in with a Chamelogk in data set [1] of 1.15. The chromatographic logD in “physchem” (pH 7) turned out to be 1.77. Further, in data set [2], the “log kW^IAM” value is recorded as 2.83 and the “Δ log kW^IAM” value was 2.24. Further, the LogS entry in data set [5] was “Int. range”. Further, the “Abs. Route” value in data set [6] is on record as “not orally bioavailable; also recorded: Non-oral”.

In turn, `COC(=O)N[C@H](C(=O)N[C@@H](Cc1ccccc1)[C@@H](O)CN(Cc1ccc(-c2ccccn2)cc1)NC(=O)[C@@H](NC(=O)OC)C(C)(C)C)C(C)(C)C` [atazanavir] came in with a Chamelogk in data set [1] of 0.33. In addition, in “physchem” (setting [7]), the chromatographic logD was 3.15. In addition, in data set [2], the “log kW^IAM” value is on record as 2.74 and the “Δ log kW^IAM” value is 0.87. The “X-Ray Δ 3D-PSA” value in data set [3] is given as 34. Besides, in data set [4], the ChameLogD is recorded as 1.6.

With `Cc1sc2c(c1C)C(c1ccc(Cl)cc1)=N[C@@H](CC(=O)Nc1ccc(OCCOCCOCCOCCNc3cccc4c3C(=O)N(C3CCC(=O)NC3=O)C4=O)cc1)c1nnc(C)n1-2` (some centres unmarked) [ARV-825], the Chamelogk in data set [1] was found to be 0.72. Besides, the chromatographic logD in the data set “physchem” (setting [8]) worked out at 3.49. In data set [2], the “log kW^IAM” value was 3.49 and the “Δ log kW^IAM” value was determined as 1.31. Also, the LogS entry in data set [5] was “Low range”. The “Abs. Route” value in data set [6] is “orally active”.

In the case of `Cc1c(O)cccc1C(=O)N[C@@H](CSc1ccccc1)[C@H](O)CN1C[C@H]2CCCC[C@H]2C[C@H]1C(=O)NC(C)(C)C` [nelfinavir], the Chamelogk in data set [1] was found to be 0.74. Moreover, the chromatographic logD in the data set “physchem” (setting [7]) amounted to 4.73. Further, the BRlogD entry in “physchem” (XBridge column, 60% MeCN, pH 7.0) is “below 5”. For the same compound, in data set [2], the “log kW^IAM” value is reported as 2.69 and the “Δ log kW^IAM” value is recorded as -0.63. In addition, the ChameLogD in data set [4] was 1.4.

For the compound `CO[C@H]1C[C@@H]2CC[C@@H](C)[C@@](O)(O2)C(=O)C(=O)N2CCCC[C@H]2C(=O)O[C@H]([C@H](C)C[C@@H]2CC[C@@H](O)[C@H](OC)C2)CC(=O)[C@H](C)/C=C(\C)[C@@H](O)[C@@H](OC)C(=O)[C@H](C)C[C@H](C)/C=C/C=C/C=C/1C` [sirolimus], in data set [1], the Chamelogk came to 0.25. In the data set “physchem” (pH 7), this compound displayed a chromatographic logD of 4.97. Moreover, in data set [2], the “log kW^IAM” value was 3.96 and the “Δ log kW^IAM” value came to 0.42. For the same compound, in data set [4], the ChameLogD is reported as 1.4.

The compound `CC(C)c1nc(CN(C)C(=O)N[C@H](C(=O)N[C@@H](Cc2ccccc2)C[C@H](O)[C@H](Cc2ccccc2)NC(=O)OCc2cncs2)C(C)C)cs1` [ritonavir] had a Chamelogk in data set [1] of 0.67. In “physchem” (pH 7), this compound yielded a chromatographic logD of 3.29. In data set [2], the “log kW^IAM” value was 3.02 and the “Δ log kW^IAM” value is recorded as 1.02. Besides, the “X-Ray Δ 3D-PSA” value in data set [3] is listed as 53. In addition, the ChameLogD in data set [4] was 1.6.

For the compound `CCC[C@H](NC(=O)[C@@H]1[C@H]2CCC[C@H]2CN1C(=O)[C@@H](NC(=O)[C@@H](NC(=O)c1cnccn1)C1CCCCC1)C(C)(C)C)C(=O)C(=O)NC1CC1` [telaprevir], the Chamelogk in data set [1] came to 0.31. Further, in “physchem” (setting [8]), the chromatographic logD amounted to 3.6. Also, in data set [2], the “log kW^IAM” value was 3.02 and the “Δ log kW^IAM” value was 0.75. Moreover, the “X-Ray Δ 3D-PSA” value in data set [3] is 32.
